Assay results from PubChem BioAssay (NCI).
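48-hour exposure; five concentrations; linearly interpolated endpoints. TGI denotes the concentration required for complete inhibition of growth.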

Assays:
Test in all cases: NCI anticancer screen, dose series, 48 h
ACHN renal = system: ACHN renal
K-562 leukemia = system: K-562 leukemia
LOX IMVI melanoma = system: LOX IMVI melanoma
MCF7 breast = system: MCF7 breast
NCI-H23 lung = system: NCI-H23 lung
OVCAR-5 ovarian = system: OVCAR-5 ovarian
OVCAR-8 ovarian = system: OVCAR-8 ovarian
SF-539 CNS = system: SF-539 CNS
T-47D breast = system: T-47D breast
U251 CNS = system: U251 CNS
UO-31 renal = system: UO-31 renal

## CC(=O)OC[C@@]1(C)[C@@H]2[C@@H]3[C@@]4(CO[C@]3(C)C(=O)[C@@]3(OC(C)=O)C[C@H](C)[C@H](OC(C)=O)[C@@H]3[C@H]4OC(C)=O)[C@H](OC(=O)c3ccccc3)C[C@@H]21
ACHN renal
  TGI: > 100 µM
K-562 leukemia
  TGI: > 100 µM
LOX IMVI melanoma
  TGI: > 100 µM
MCF7 breast
  TGI: > 100 µM
NCI-H23 lung
  TGI: > 100 µM
OVCAR-5 ovarian
  TGI: > 100 µM
OVCAR-8 ovarian
  TGI: > 100 µM
SF-539 CNS
  TGI: > 100 µM
T-47D breast
  TGI: > 100 µM
U251 CNS
  TGI: > 100 µM
UO-31 renal
  TGI: > 100 µM

## O=C(CNc1ccc([N+](=O)[O-])cc1)Nn1c(-c2ccccc2)nc2ccccc2c1=O
ACHN renal
  TGI: 14.6 µM
K-562 leukemia
  TGI: 5.52 µM
LOX IMVI melanoma
  TGI: 2.23 µM
MCF7 breast
  TGI: 7.08 µM
NCI-H23 lung
  TGI: 7.13 µM
OVCAR-5 ovarian
  TGI: 16.3 µM
OVCAR-8 ovarian
  TGI: 18 µM
SF-539 CNS
  TGI: 6.61 µM
T-47D breast
  TGI: 9.63 µM
U251 CNS
  TGI: 4.47 µM
UO-31 renal
  TGI: 14.1 µM

## COC(=O)CSc1cc(Cl)c(C)cc1S(=O)(=O)Nc1n[nH]c(N)n1
ACHN renal
  TGI: > 10 µM
K-562 leukemia
  TGI: > 10 µM
LOX IMVI melanoma
  TGI: > 10 µM
MCF7 breast
  TGI: > 10 µM
NCI-H23 lung
  TGI: > 10 µM
OVCAR-5 ovarian
  TGI: > 10 µM
OVCAR-8 ovarian
  TGI: > 10 µM
SF-539 CNS
  TGI: > 10 µM
T-47D breast
  TGI: > 10 µM
U251 CNS
  TGI: > 10 µM
UO-31 renal
  TGI: > 10 µM

## COC1(OC)CCCCCCCCC(OC)(OC)CCCCCCCC1
ACHN renal
  TGI: > 100 µM
K-562 leukemia
  TGI: > 100 µM
LOX IMVI melanoma
  TGI: > 100 µM
MCF7 breast
  TGI: > 100 µM
NCI-H23 lung
  TGI: > 100 µM
OVCAR-5 ovarian
  TGI: > 100 µM
OVCAR-8 ovarian
  TGI: > 100 µM
SF-539 CNS
  TGI: > 100 µM
T-47D breast
  TGI: > 100 µM
U251 CNS
  TGI: > 100 µM
UO-31 renal
  TGI: 10.9 µM

## CCc1cccc(C(C)C)c1NC(=O)C(=O)Nn1c(=S)[nH]c2ccccc2c1=O
ACHN renal
  TGI: > 100 µM
K-562 leukemia
  TGI: > 100 µM
LOX IMVI melanoma
  TGI: > 100 µM
MCF7 breast
  TGI: > 100 µM
NCI-H23 lung
  TGI: > 100 µM
OVCAR-5 ovarian
  TGI: > 100 µM
OVCAR-8 ovarian
  TGI: > 100 µM
SF-539 CNS
  TGI: > 100 µM
T-47D breast
  TGI: > 100 µM
U251 CNS
  TGI: > 100 µM
UO-31 renal
  TGI: > 100 µM

## COC(=O)c1ccccc1/C=C1\Cc2ccc3c(c2C1=O)CCC3
ACHN renal
  TGI: > 100 µM
K-562 leukemia
  TGI: > 100 µM
LOX IMVI melanoma
  TGI: > 100 µM
MCF7 breast
  TGI: > 100 µM
NCI-H23 lung
  TGI: > 100 µM
OVCAR-5 ovarian
  TGI: > 100 µM
OVCAR-8 ovarian
  TGI: > 100 µM
SF-539 CNS
  TGI: > 100 µM
T-47D breast
  TGI: > 100 µM
U251 CNS
  TGI: > 100 µM
UO-31 renal
  TGI: > 100 µM

## COc1ccc(NCc2cccc3c(=O)c4ccc(Cl)cc4oc23)cc1
ACHN renal
  TGI: > 100 µM
K-562 leukemia
  TGI: > 100 µM
LOX IMVI melanoma
  TGI: > 100 µM
MCF7 breast
  TGI: > 100 µM
NCI-H23 lung
  TGI: > 100 µM
OVCAR-5 ovarian
  TGI: > 100 µM
OVCAR-8 ovarian
  TGI: > 100 µM
SF-539 CNS
  TGI: > 100 µM
T-47D breast
  TGI: > 100 µM
U251 CNS
  TGI: > 100 µM
UO-31 renal
  TGI: > 100 µM

## O=c1c2c3c(sc2nc2n1sc1nc4sc5c(c4c(=O)n12)CCCC5)CCCC3
ACHN renal
  TGI: > 100 µM
K-562 leukemia
  TGI: > 63.3 µM
LOX IMVI melanoma
  TGI: > 100 µM
MCF7 breast
  TGI: 50.8 µM
NCI-H23 lung
  TGI: 79.7 µM
OVCAR-5 ovarian
  TGI: > 100 µM
OVCAR-8 ovarian
  TGI: > 100 µM
SF-539 CNS
  TGI: > 100 µM
T-47D breast
  TGI: 17.1 µM
U251 CNS
  TGI: > 100 µM
UO-31 renal
  TGI: 43.9 µM

## Cn1c(=O)oc2cc(C(O)CN3CCN(Cc4ccc5c(c4)OCO5)CC3)ccc21 (centres undefined)
ACHN renal
  TGI: > 100 µM
K-562 leukemia
  TGI: > 100 µM
LOX IMVI melanoma
  TGI: > 100 µM
MCF7 breast
  TGI: > 100 µM
NCI-H23 lung
  TGI: > 100 µM
OVCAR-5 ovarian
  TGI: > 100 µM
OVCAR-8 ovarian
  TGI: > 100 µM
SF-539 CNS
  TGI: > 100 µM
T-47D breast
  TGI: > 100 µM
U251 CNS
  TGI: > 100 µM
UO-31 renal
  TGI: > 100 µM
